In patent publication US9492499B2, “Peptides having anti-inflammatory properties” (Riptide Bioscience, Inc., priority 2014, dated 2016):
Entries after “also recorded” stand apart in the source; their conditions may differ. No end group written: not given here.

Experiments:
M2-polarized macrophages = test: Viable cell count of M2-polarized bone marrow macrophages; format: cell-based, mouse; conditions: 100 nM, 72 hours
Procedure: (§1) Primary bone marrow cells were collected from male C57BL/6J (The Jackson Laboratory, Bar Harbor, Me.). Mouse bone marrow macrophages were differentiated in vitro from the primary bone marrow cells by culturing in Dulbecco's minimal essential medium (DMEM) with 10% FBS and 30 ng/ml murine M-CSF (colony stimulating factor) for 6 days. At day 7, macrophages were plated into 12-well plates and cultured in DMEM (10% FBS) with (i) IL-4 peptide (20 ng/mL), (ii) INF-γ (10 ng/mL), or (iii) neither IL-4 nor INF-γ for 24 hours. After 24 hours, the media was replaced with pure DMEM and the cells were cultured for an additional 48 hours. The resulting macrophages were (i) M2-polarized, (ii) M1-polarized, or (iii) undifferentiated, respectively.
(§2) A macrophage sample containing approximately 70,000 […] macrophages per ml was incubated for 72 hours with 100 nM RP-182 (SEQ ID NO: 121). […] Thus, the RP-182 had little effect on the viability of M1 macrophages.

PD-1 = PD-1 staining of tumors in transgenic p53/KRAS mice; format: in vivo, mouse; conditions: 10 mg/kg daily subcu for one week, vs vehicle
Procedure: (§3) In one experiment, tumors in transgenic p53/KRAS mice were allowed to grow to approximately […] in volume, and the animals were then treated daily subcu for one week with either vehicle only, or 10 mg/kg RP-182, following which the animals were sacrificed and the tumors resected, formalin-fixed, and stained with antibodies to PD-1 (FIG. 19), PD-L1 and PD-L2 (FIG. 20).

[1] = tested on: human triple-negative breast cancer cells (MDA-MB-231); test: Tumor volume, MDA-MB-231 triple-negative breast cancer in nude mice, combination with Gemcitabine; format: in vivo, mouse; conditions: Gemcitabine+RP-182 cohort, from day 32
Procedure: To test this theory, cohorts of immunocompromised (“nude”) mice were injected with ˜5×10^6 human triple-negative breast cancer cells (MDA-MB-231) under the upper left teat. Following this administration, one cohort received only vehicle; two of the cohorts received the chemotherapeutic agent Gemcitabine, at a q4d dose of 40 mg/kg of body weight. One of these cohorts also received RP-182 (SEQ ID NO: 121) at a daily dose of 5 mg/kg body weight; and a fourth cohort received only RP-182 at a daily dose of 5 mg/kg body weight. Beginning on day 32 of the study, in the Gemcitabine+RP-182 cohort, concentrations of RP-182 were increased to 20 mg/kg body weight. Tumor volume was assessed at various time points following initial cell administration (FIG. 21). After 50 days, the mice were sacrificed.

PD-L2 = PD-L2 staining of tumors in transgenic p53/KRAS mice; format: in vivo, mouse; conditions: 10 mg/kg daily subcu for one week, vs vehicle
Procedure: as §3

[2] = tested on: undifferentiated macrophages; test: Viable cell count of undifferentiated bone marrow macrophages; format: cell-based, mouse; conditions: 100 nM, 72 hours; sample approximately 70,000 per ml
Procedure: as §1, §2

PD-L1 = PD-L1 staining of tumors in transgenic p53/KRAS mice; format: in vivo, mouse; conditions: 10 mg/kg daily subcu for one week, vs vehicle
Procedure: as §3

M1-polarized macrophages = test: Viable cell count of M1-polarized bone marrow macrophages; format: cell-based, mouse; conditions: 100 nM, 72 hours
Procedure: as §1, §2

[3] = Tumor growth, MCF-7 non-metastatic breast cancer model in athymic nude mice; format: in vivo, mouse
Procedure: The polypeptides of the invention were also tested for their effect on tumor growth in a mouse model of non-metastatic breast cancer. MCF-7 human non-metastatic breast cancer cells were cultured at 37° C., 5% CO2 in normal growth media. Cells were harvested at 80% to 90% confluence. Immune compromised athymic nude mice (J:NU) were divided into 2 groups (9 animals per group). All mice were injected with ˜4.5×10^6 MCF-7 cells which had been stained with VIVO Tracker 680 and suspended in 200 μl of PBS/Matrigel mixture. Cells were injected subcutaneously on the dorsal surface of treated animals using a 22 gauge needle fitted with a 500 μl syringe.
Animals were designated vehicle and peptide treated. The peptide treated animals were treated with the RP-397 polypeptide (SEQ ID NO: 194). Freshly prepared RP-397 peptide was dissolved in sterile saline at a concentration of 100 μM and was used to treat the animals in the peptide group. Vehicle treated animals were injected with saline buffer alone. All treatments were injected into the tumor mass two times weekly for 5 weeks using a 27½ gauge needle fitted with a 1 ml syringe. Animal weights and tumor volumes were measured 3 times weekly and the fluorescence labeling was followed by VIVO Tracker 680 and IVIS Imaging.

NF-kB = NF-kB activity in 3T3-L1 preadipocyte Nfkb-RE/GFP reporter cells; format: cell-based; conditions: 0.01 μM peptide, lipopolysaccharide 20 ng/ml, GFP fluorescence
Procedure: NF-kB activity was monitored using the a 3T3-L1 preadipocyte cell line stably transformed with a Nfkb-RE/GFP construct, as described in Shen et al. (2013), “Adipocyte reporter assays: Application for identification of anti-inflammatory and antioxidant properties of mangosteen xanthones,” Mol. Nutr. Food Res. 00:1-9, the entire contents of which are incorporated herein by reference. NF-kB expressing adipocyte reporter cells were plated in DMEM in wells of a 24-well plate, at a seeding density of 5×10^4. On the second and third days post-plating, test peptides were individually added to the wells to a final concentration of 0.01 μM. The test peptides included RP-398 (SEQ ID NO: 155), and RP-185 (SEQ ID NO: 123). On day 4 post-plating, lipopolysaccharide was added to the medium to a final concentration of 20 ng/ml. Finally, on day 5 post-plating, the cells were harvested and a fluorescence assay performed to detect GFP expression levels.

KFRKAFKRFF [RP-182]
viable cell count, M2-polarized macrophages (M2-polarized macrophages): 20,000 cells per ml | PD-1 expression in tumor (PD-1): significantly downregulated; also recorded: reduced | increase in tumor volume after RP-182 raised to 20 mg/kg [1]: essentially halted | PD-L2 expression in tumor (PD-L2): significantly downregulated; also recorded: reduced | viable cell count, undifferentiated macrophages [2]: 68,000 cells per ml | PD-L1 expression in tumor (PD-L1): significantly downregulated; also recorded: reduced | viable cell count, M1-polarized macrophages (M1-polarized macrophages): 68,000 cells per ml

FAKKFAKKF [RP-397, FAKKFAKKF]
Body Weight After ([3]; after treatment): 30.1 g | Body Weight Before ([3]; before treatment): 25.1 g

FAKKFAKKFK [RP-398]
NF-kB expression reduced relative to control cells (NF-kB): approximately 58%

FFKKFFKKFK [RP-185]
NF-kB expression reduced relative to control cells (NF-kB): approximately 58%
